Common to all, as to type: cell-based, Chinese hamster
Series [1] concerns GC33/DXB11s/TauT/CSAD strain. The series can be described thus: Treatment with a high concentration of MTX: proliferation and antibody production ability. The note with it: for amount of antibody production / number of viable cells: recovered, then cultured in 20 nM MTX, 15 mL tubes, initial 1×10^5 cells/mL, FIG. 4. The protocol: The GC33/DXB11s/TauT/CSAD strain, which was most MTX-resistant in Example 1, was subcultured in rotation culture for 28 days using the CHO-S-SFM II/CD-CHO mixed medium to which a high concentration of MTX (100 nM or 200 nM) had been added under the condition of 2×10^5 cells/mL in an initial stage, with the medium replaced every three to five days. […] By 14 days after that, i.e., on the 42nd day, the cells had begun to proliferate. The above two strains in which survival rates were recovered by subculture in the diluted medium (cells treated with 100 nM or 200 nM MTX) were cultured in 15 mL tubes using the CHO-S-SFM II/CD-CHO mixed medium in the presence of 20 nM MTX under the condition of 1×10^5 cells/mL in an initial stage. […] Also, the amount of antibody produced by the TauT/CSAD strain before treatment with a high concentration of MTX was 86 mg/L even when the number of viable cells grew to 19.6×10^5 cells/mL; thus, it was shown that the TauT/CSAD strain before treatment with a high concentration of MTX had the lowest production ability.

Series [2] has as its system GC33/DXB11s, GC33/DXB11s/TauT and GC33/DXB11s/TauT/CSAD strains. Briefly: Sensitivity to 200 nM MTX (survival rate) of anti-glypican-3 antibody-producing strains. The note with it: MTX raised from 20 nM to 200 nM; CHO-S-SFM II/CD-CHO mixed medium; FIG. 2. From the text:
Then, pPur-CSAD expression plasmids (see Referential Example 4 described later, FIG. 6) were co-introduced into the above GC33/DXB11s/TauT strain to prepare a GC33/DXB11s/TauT/CSAD strain in which CSAD was strongly expressed. Subsequently, sensitivity to MTX of the GC33/DXB11s/TauT strain and the GC33/DXB11 s/TauT/C SAD strain was compared with that of the parent GC33/DXB11s strain. Because the parent strain was a strain capable of producing an antibody in which an antibody gene had been amplified to 20 copies or more (relative to the value before MTX treatment) by treatment with 20 nM MTX, the above strains could stably proliferate in the CHO-S-SFM II/CD-CHO mixed medium to which 20 nM MTX had been added.

The subject of another series is DXB 11 s/TauT host cells. Briefly: Sensitivity to MTX (survival rate) of host cells strongly expressing TauT in medium without HT. The conditions noted are these: 10 nM or 20 nM MTX added; CHO-S-SFM II/CD-CHO mixed medium without HT; FIG. 1. From the text:
(§1) Into CHO DXB 11 s cells serving as host cells, pHyg-TauT expression plasmids (see Referential Example 2 described later, FIG. 5) were introduced by electroporation to prepare DXB 11 s/TauT host cells in which TauT was strongly expressed. Subsequently, sensitivity to MTX was compared between the DXB 11 s/TauT host cells and the DXB 11 s host cells which were the parent strain.

In the next series the test system is CHO DXB 11 s host cells. Briefly: Sensitivity to MTX (survival rate) of parent host cells in medium without HT. The note with it: 10 nM or 20 nM MTX added; CHO-S-SFM II/CD-CHO mixed medium without HT; FIG. 1.
Description: as §1

As for `CN(Cc1cnc2nc(N)nc(N)c2n1)c1ccc(C(=O)N[C@@H](CCC(=O)O)C(=O)O)cc1` [MTX, methotrexate], the cell proliferation entry in series [1] (100 nM or 200 nM MTX, subculture in rotation culture for 28 days, FIG. 3) is “no cell proliferation was observed”. Also, the “amount of antibody production” value amounted to 162 mg/L in series [1] (strain treated with 100 nM MTX) and 144 mg/L in series [1] (strain treated with 200 nM MTX). The entries for the “number of viable cells” value in series [1] (strain treated with 100 nM MTX) and in series [1] (strain treated with 200 nM MTX) were 22.3×10^5 cells/mL and 18.0×10^5 cells/mL, respectively. Moreover, the survival rate entry is “the survival rates in all of the above strains decreased” in series [2], “reduction in the survival rate was suppressed at a level equivalent to the survival rate observed in the absence of MTX” with DXB 11 s/TauT host cells and “a tendency of accelerated decrease in the survival rate was observed” in the series with CHO DXB 11 s host cells.

Values taken from US9802993B2, “Method for producing a cell for protein production by treating a cell overexpressing a taurine transporter with methotrexate” (Chugai Seiyaku Kabushiki Kaisha, priority 2007, dated 2017).
